In patent US20080020421A1, “METHODS OF SCREENING AGENTS FOR CYTOTOXIC AND ANTIMICROBIAL ACTIVITY” (priority 2006, published 2008):

Key:
E. coli-GFP = experiment: Toxicity assay with GFP-expressing E. coli; conditions: for Percent-GFP-fluorescence after incubation with test compounds, E. coli-GFP (20 μg/ml): 10 h incubation, relative to untreated bacteria
Description: (§1) E. coli-GFP cells were grown in LB broth media while the MAC104 M. avium strain was grown in 7H9-ADC media.
(§2) Toxicity assays with GFP-expressing bacteria. E. coli was transformed with a GFP-expression plasmid that also confers tetracycline resistance was kindly provided by Dr. David Schneider (Elrod-Erickson et al., 2000). […] Both bacterial strains were grown and selected based on antibiotic resistance and GFP expression. All toxicity assays were performed using the plates and fluorometric parameters described in the previous section. Bacterial cell suspensions were seeded in a final volume of 100 μl at an optical density of 0.05 and 0.25 at 650 nm, for E. coli-GFP and M. avium-GFP, respectively. After exposure to the test compounds, assay plates were incubated at 37° C. in a humid environment to prevent dehydration in the wells. Unlike the HeLa-GFP assays, reading were performed without removing the supernatants to avoid loss of cells. Several untreated wells containing bacteria and media were used to determine the maximum level of fluorescence. Several wells containing media alone (no bacteria) were included in each assay to remove background fluorescence.
(§3) Data analysis. All compounds, including controls, were screened in triplicate. The average of the three wells that were used for the removal of the background fluorescence (wells containing water for the HeLa-GFP assays and wells containing media alone for bacteria) was subtracted from each individual well. The mean of these triplicate values for each compound was then obtained.

[1] = test system: M. avium-GFP (strain MAC104); experiment: Toxicity assay with GFP-expressing M. avium; conditions: for Percent-GFP-fluorescence after incubation with test compounds, M. avium-GFP (20 μg/ml): 18 h incubation, relative to untreated bacteria
Description: as §1, §2, §3

HeLa-GFP cells = experiment: HeLa-GFP fluorometric cytotoxicity assay; conditions: for Percent-GFP-fluorescence after incubation with test compounds, HeLa-GFP (2 μg/ml) / Percent-GFP-fluorescence after incubation with test compounds, HeLa-GFP (20 μg/ml): 18 h incubation, relative to untreated (DMSO) cells
Description: Cell culture. HeLa-GFP cells were cultured in DMEM media supplemented with 10% heat-inactivated newborn calf serum as previously described (Montoya et al., 2004). Stock cultures were prewashed twice with PBS before the treatment of trypsin for cell resuspension and subsequently re-plated at the concentration of 4,000 cells/well.
HeLa-GFP fluorometric cytotoxicity assay. All cell lines were seeded in clear-bottomed 96-well assay plates (3603, Costar, Corning Inc., Corning, N.Y.) in order to minimized background fluorescence. HeLa cells were grown in a total volume of 0.2 ml of medium and incubated overnight for proper cell attachment. The quinone compounds were then added to each well (in triplicate) and then incubated for a period of 18 hr. For the determination of fluorescence, the assay plates were then read using the Fluoroskan Ascent F1 fluorometer (Thermo Electron Corp.) set at the excitation and emission parameters of 485 and 518 nm, respectively. Since the HeLa-GFP cell line is adherent, the fluorometer was set to read from the bottom of the plate for closer proximity to the cells. Before the readings were performed, all supernatant media was removed to avoid any background interference and thus enhancing the sensitivity of the optical readings. For calibration purposes, three untreated control wells were used to determine the maximum level of fluorescence (100%). […] As a cytolysis control (complete loss of fluorescence), three wells containing cells were exposed to 0.2 ml of deionized water. These controls were then used to calculate the percent loss of GFP signal after compound exposure as determined by comparison with control wells containing cells that were not exposed to the chemical agent (see data analysis below).
Data analysis. All compounds, including controls, were screened in triplicate. The average of the three wells that were used for the removal of the background fluorescence (wells containing water for the HeLa-GFP assays and wells containing media alone for bacteria) was subtracted from each individual well. The mean of these triplicate values for each compound was then obtained. These mean values were then divided by the average obtained for maximum fluorescence (cells not treated with compound) and then multiplied by 100 to obtain the percentage values as shown in Table 1.

[2] = loss of GFP signal, Table 1 screen

Structure (SMILES)	Percent-GFP-fluorescence after incubation with test compounds, E. coli-GFP (20 μg/ml) (E. coli-GFP)	Percent-GFP-fluorescence after incubation with test compounds, M. avium-GFP (20 μg/ml) [1]	Percent-GFP-fluorescence after incubation with test compounds, HeLa-GFP (2 μg/ml) (HeLa-GFP cells)	Percent-GFP-fluorescence after incubation with test compounds, HeLa-GFP (20 μg/ml) (HeLa-GFP cells)	toxicity to E. coli (in words) (E. coli-GFP; [2])	toxicity to M. avium (in words) [1, 2]	toxicity to HeLa-GFP cells (in words) (HeLa-GFP cells; [2])
O=C1C=CC(=O)c2c(O)cccc21 [Compound Q2]	111.0%	72.0%	14.0%	29.0%			
CC(C)=CCC1=C(O)C(=O)c2ccccc2C1=O [Compound Q4, lapachol, reference compound]	56.0%	26.0%	70.0%	3.0%			
CC1=CC(=O)c2ccccc2C1=O [Compound Q5, menadione, reference compound]	58.0%	69.0%	13.0%	22.0%	highly toxic	highly toxic	highly toxic
O=C1C(c2ccccc2)=C(c2ccccc2)C(=O)c2ccccc21 [Compound Q6]	105.0%	55.0%	78.0%	20.0%			
O=C1C=C(c2ccccc2)C(=O)c2ccccc21 [Compound Q7]	89.0%	35.0%	13.0%	25.0%			
CCCC1=C(CCC)C(=O)c2ccccc2C1=O [Compound Q8]	134.0%	102.0%	89.0%	16.0%			
CCCCCC1=C(C)C(=O)c2ccccc2C1=O [Compound Q9]	115.0%	85.0%	90.0%	31.0%			
CCCCCC1=CC(=O)c2ccccc2C1=O [Compound Q10]	110.0%	81.0%	84.0%	52.0%			
CCCCCCC1=CC(=O)c2ccccc2C1=O [Compound Q11]	98.0%	69.0%	84.0%	14.0%			
CCCCCCCC1=CC(=O)c2ccccc2C1=O [Compound Q12]	82.0%	66.0%	81.0%	14.0%			
CCCC1=C(CC)C(=O)c2ccccc2C1=O [Compound Q13]	93.0%	72.0%	89.0%	21.0%			
O=C1C=C(CCCO)C(=O)c2ccccc21 [Compound Q14]	90.0%	58.0%	83.0%	29.0%			
